Measured values from US20240299309A1 (priority 2020, published 2024).

Legend:
Pseudomonas aeruginosa = type: cell-based
SARS-CoV-2 = tested on: SARS-CoV-2; parameters: species or system Balb/c mice; details: mouse, in vivo
Staphylococcus aureus = type: cell-based

OCCOc1ccccc1 [Formulation 2-PE, 2-Phenoxyethanol]
antimicrobiotic activity (Pseudomonas aeruginosa): has antimicrobiotic activity | VNTs after 48 h storage with preservative (SARS-CoV-2): more advantageous results | antimicrobiotic activity (Staphylococcus aureus): has antimicrobiotic activity

C[CH2][Hg][S]c1ccccc1C(=O)[O-].[Na+] [Thiomersal, Natrium-2-(ethylmercurithio)benzoat]
VNTs after 48 h storage with preservative (SARS-CoV-2): slight decrease
